# In patent publication US8088806B2 (Achillion Pharmaceuticals, Inc., priority 2005, dated 2012):
# Tested on: HCV replicon
# Assay: Replicon based assay of HCV replication inhibition (NPT ELISA)
# Assay type: cell-based, Hepatitis C virus
# Conditions: Hepatitis C virus, Huh-7, 72 h, Table I; Huh-7 HCV replicon-containing cells, three days; read-out: Activity
# Outline: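 NPT (neomycin phosphotransferase) content, proportional to replicon replication, quantified by capture ELISA on day four. Before that, replicon-bearing Huh-7 cells in G418-free screening medium were exposed three days at 37° C to compound, typically six doses from 10 to 0.03 micromolar, with equal DMSO across wells.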
row,Compound,EC50
1,"Clc1ccc(-c2csc(Nc3ccc(Cc4ccccc4)cc3)n2)cc1Cl [compound 40, N-(4-benzylphenyl)-4-(3,4-dichlorophenyl)thiazol-2-amine]",> 10000 nM
2,"CCCCCOc1ccc(Nc2nc(-c3cccc(F)c3)cs2)cn1 [compound 178, N-(4-(3-fluorophenyl)thiazol-2-yl)-6-(pentyloxy)pyridin-3-amine]",< 1000 nM
3,"Fc1ccc(-c2csc(Nc3ccc(Cc4ccccc4)cc3)n2)c(F)c1 [compound 41, N-(4-benzylphenyl)-4-(2,4-difluorophenyl)thiazol-2-amine]",> 10000 nM
4,"CCCCCOc1ccc(Nc2nc(-c3ccccc3Cl)cs2)cn1 [compound 181, N-(4-(2-chlorophenyl)thiazol-2-yl)-6-(pentyloxy)pyridin-3-amine]",< 1000 nM
5,"Cc1c(-c2csc(Nc3ccccc3)n2)sc2ncnn12 [compound 168, 4-(6-methylthiazolo[3,2-b][1,2,4]triazol-5-yl)-N-phenylthiazol-2-amine]",1000 to 10000 nM
6,"CCCCCOc1ccc(Nc2nc(-c3ccc(C#N)cc3)cs2)cc1C(F)(F)F [compound 132, 4-(2-(3-(trifluoromethyl)-4-(pentyloxy)phenylamino)thiazol-4-yl)benzonitrile]",< 1000 nM
7,"FC(F)Oc1ccc(-c2csc(Nc3cccnc3)n2)cc1 [compound 214, N-(4-(4-(difluoromethoxy)phenyl)thiazol-2-yl)pyridin-3-amine]",> 10000 nM
8,"O=C(Nc1ccc(Cl)c(Cl)c1)c1nc(-c2cccnc2)cs1 [compound 123, N-(3,4-dichlorophenyl)-4-(pyridin-3-yl)thiazole-2-carboxamide]",> 10000 nM
9,"Fc1ccc(-c2csc(Nc3nc(-c4ccc(Cl)cc4)cs3)n2)cc1 [compound 145, 4-(4-chlorophenyl)-N-(4-(4-fluorophenyl)thiazol-2-yl)thiazol-2-amine]",> 10000 nM
10,"Fc1ccc(-c2csc(Nc3ccc(Cl)c(Cl)c3)n2)cc1 [compound 47, N-(3,4-dichlorophenyl)-4-(4-fluorophenyl)thiazol-2-amine]",< 1000 nM
11,"c1cncc(-c2csc(Nc3ccc(N4CCCCC4)cc3)n2)c1 [compound 101, N-(4-(piperidin-1-yl)phenyl)-4-(pyridin-3-yl)thiazol-2-amine]",> 10000 nM
12,"CCCCCOc1ccc(Nc2nc(C(=O)O)cs2)cc1C(F)(F)F [compound 10, 2-(3-(trifluoromethyl)-4-(pentyloxy)phenylamino)thiazole-4-carboxylic acid]",> 10000 nM
13,"CCCCCOc1ccc(NC(=O)c2nc(-c3cccnc3)cs2)cc1 [compound 113, N-(4-(pentyloxy)phenyl)-4-(pyridin-3-yl)thiazole-2-carboxamide]",> 10000 nM
14,"N#Cc1ccc(Nc2nc(-c3ccc(F)cc3F)cs2)cc1 [compound 53, 4-(4-(2,4-difluorophenyl)thiazol-2-ylamino)benzonitrile]",> 10000 nM

# Same assay, conditions: Hepatitis C virus, Huh-7, 72 h, Table III; Huh-7 HCV replicon-containing cells, three days; read-out: Activity
row,Compound,EC50
1,"Fc1ccc(-c2csc(Nc3ccc(OCCCC4CCCC4)c(C(F)(F)F)c3)n2)cn1 [compound 528, N-(4-(3-cyclopentylpropoxy)-3-(trifluoromethyl)phenyl)-4-(6-fluoropyridin-3-yl)thiazol-2-amine]",< 1000 nM
2,"CCCCCCCCOc1ccc(Nc2nc(-c3ccc(C#N)nc3)cs2)cc1C(F)(F)F [compound 613, 5-(2-(3-(trifluoromethyl)-4-(octyloxy)phenylamino)thiazol-4-yl)pyridine-2-carbonitrile]",< 1000 nM
3,"CN(C)CCCOc1ccc(Nc2nc(-c3cccnc3)cs2)cc1C(F)(F)F [compound 695, N-(4-(3-(dimethylamino)propoxy)-3-(trifluoromethyl)phenyl)-4-(pyridin-3-yl)thiazol-2-amine]",1000 to 10000 nM
4,"CCCCCCCc1ccc(Nc2nc(-c3cc4ccccc4o3)cs2)cc1 [compound 565, 4-(benzofuran-2-yl)-N-(4-heptylphenyl)thiazol-2-amine]",> 10000 nM
5,"FC(F)(F)c1cc(Nc2nc(-c3cccnc3)cs2)ccc1OCCCc1ccccc1 [compound 682, N-(4-(3-phenylpropoxy)-3-(trifluoromethyl)phenyl)-4-(pyridin-3-yl)thiazol-2-amine]",< 1000 nM
6,N#Cc1ccc(-c2csc(Nc3ccc(OCCCC4CCCC4)c(C(F)(F)F)c3)n2)cn1 [compound 614],< 1000 nM
7,"CCCCCCCCOc1ccc(Nc2nc(-c3cncn3C)cs2)cc1C(F)(F)F [compound 663, N-(3-(trifluoromethyl)-4-(octyloxy)phenyl)-4-(1-methyl-1H-imidazol-5-yl)thiazol-2-amine]",< 1000 nM
8,"CCCCCCCCN(C)c1ncc(Nc2nc(-c3cccnc3)cs2)cc1C(F)(F)F [compound 684, 3-(trifluoromethyl)-N^2-methyl-N^2-octyl-N^5-(4-(pyridin-3-yl)thiazol-2-yl)pyridine-2,5-diamine]",> 10000 nM

# Same assay, conditions: Hepatitis C virus, replicon based assay of HCV replication inhibition; Table II; read-out: Activity
row,Compound,EC50
1,"CCCCCCCOc1ccc(Nc2nc(-c3ccc(Cl)cc3)cs2)cc1 [compound 422, 4-(4-chlorophenyl)-N-(4-(heptyloxy)phenyl)thiazol-2-amine]",< 1000 nM
2,"CCCCCCCCOc1ccc(Nc2nc(-c3ccc(F)cc3F)cs2)cc1 [compound 330, 4-(2,4-difluorophenyl)-N-(4-(octyloxy)phenyl)thiazol-2-amine]",1000 to 10000 nM
3,"CCCCCCCCN(C)c1ccc(Nc2nc(Cc3cccnc3)cs2)cc1C(F)(F)F [compound 500, 2-(trifluoromethyl)-N^1-methyl-N^1-octyl-N^4-(4-((pyridin-3-yl)methyl)thiazol-2-yl)benzene-1,4-diamine]",< 1000 nM
4,"CCCCCOc1c(F)cc(Nc2nc(-c3cccnc3)cs2)cc1F [compound 430, N-(3,5-difluoro-4-(pentyloxy)phenyl)-4-(pyridin-3-yl)thiazol-2-amine]",< 1000 nM
5,"CCCCCOc1ccc(Nc2nc(C3CCCN3C(=O)C(F)(F)F)cs2)cc1C(F)(F)F (centres unmarked) [compound 226, 2,2,2-trifluoro-1-(2-(2-(4-(pentyloxy)-3(trifluoromethyl)phenyl-amino)thiazol-4-yl)pyrrolidin-1-yl)ethanone]",1000 to 10000 nM
6,"CCCCCCCCOc1ccc(Nc2nc(Cl)cs2)cc1 [compound 479, 4-chloro-N-(4-(octyloxy)phenyl)thiazol-2-amine]",< 1000 nM
7,"CCCCCCCCOc1ccc(Nc2nc(-c3ccc(Br)cc3)cs2)cc1 [compound 382, 4-(4-bromophenyl)-N-(4-(octyloxy)phenyl)thiazol-2-amine]",< 1000 nM
8,"CCCCCCCCOc1ccc(Nc2nc(CN3CCC(C(=O)OCC)CC3)cs2)cc1 [compound 319, ethyl 1-((2-(4-(octyloxy)phenylamino)thia-zol-4-yl)methyl)piperidine-4-carboxylate]",1000 to 10000 nM
9,"COc1ccc(Oc2ccccc2)cc1Nc1nc(-c2cccnc2)cs1 [compound 300, N-(2-methoxy-5-phenoxyphenyl)-4-(pyridin-3-yl)thiazol-2-amine]",1000 to 10000 nM
10,"CCCCCCCCOc1ccc(Nc2nc(-c3ccc(F)c(F)c3)cs2)cc1 [compound 312, 4-(3,4-difluorophenyl)-N-(4-(octyloxy)phenyl)thiazol-2-amine]",< 1000 nM
11,"CCCCCCCOc1ccc(Nc2nc(-c3cc4cnccc4o3)cs2)cc1 [compound 362, 4-(furo[3,2-c]pyridin-2-yl)-N-(4-(heptyloxy)phenyl)thiazol-2-amine]",1000 to 10000 nM
12,"CCCCCCCCOc1ccc(Nc2nc(CN3CCC(N(C)C)C3)cs2)cc1 (centres unmarked) [compound 317, 4-((3-(dimethylamino)pyrrolidin-1-yl)methyl)-N-(4-(octyloxy)phenyl)thiazol-2-amine]",< 1000 nM

# Same assay, conditions: Hepatitis C virus, replicon based assay of HCV replication inhibition; Table IV; read-out: Activity
row,Compound,EC50
1,CCN(CC)S(=O)(=O)c1cc(Nc2nc(-c3cccnc3)cs2)ccc1Cl [compound 819],> 10000 nM
2,"FC(F)(F)c1ccc(Nc2nc(-c3cccnc3)cs2)cc1 [compound 891, N-(4-(trifluoromethyl)phenyl)-4-(pyridin-3-yl)thiazol-2-amine]",1000 to 10000 nM
3,"FC(F)(F)c1cc(Nc2nc(-c3cccnc3)cs2)ccc1OCCCCc1ccccc1 [compound 804, N-(4-(4-phenylbutoxy)-3-(trifluoromethyl)phenyl)-4-(pyridin-3-yl)thiazol-2-amine]",< 1000 nM
4,"CCCCc1ccc(Nc2nc(-c3cccnc3)cs2)c(C)c1 [compound 900, N-(4-butyl-2-methylphenyl)-4-(pyridin-3-yl)thiazol-2-amine]",< 1000 nM
5,"COc1ncc(-c2csc(Nc3ccc(OCCCc4cccnc4)c(C(F)(F)F)c3)n2)cn1 [compound 830, N-(4-(3-(pyridin-3-yl)propoxy)-3-(trifluoromethyl)phenyl)-4-(2-methoxypyrimidin-5-yl)thiazol-2-amine]",1000 to 10000 nM
6,"CCCCCCCCOc1ccc(Nc2nc(C(=O)CSC3=NC(=O)CC(=O)N3)cs2)cc1C(F)(F)F [compound 808, 2-(2-(2-(3-(trifluoromethyl)-4-(octyloxy)phenylamino)thiazol-4-yl)-2-oxoethylthio)pyrimidine-4,6(1H,5H)-dione]",< 1000 nM
7,"Cc1ccc(CCCCOc2ccc(Nc3nc(-c4cccnc4)cs3)cc2C(F)(F)F)cc1 [compound 805, N-(4-(4-p-tolylbutoxy)-3-(trifluoromethyl)phenyl)-4-(pyridin-3-yl)thiazol-2-amine]",1000 to 10000 nM
8,"CCCCCCCCOc1ccc(Nc2nc(-c3ncc(C(=O)OCC)s3)cs2)cc1C(F)(F)F [compound 732, ethyl 2-(2-(3-(trifluoromethyl)-4-(octyloxy)phenylamino)thiazol-4-yl)thiazole-5-carboxylate]",< 1000 nM
9,"Cc1cccc(C#CCCOc2ccc(Nc3nc(-c4cccnc4)cs3)cc2C(F)(F)F)c1 [compound 949, N-(4-(4-m-tolylbut-3-ynyloxy)-3-(trifluoromethyl)phenyl)-4-(pyridin-3-yl)thiazol-2-amine]",< 1000 nM
10,"O=C(O)c1ccc(Oc2ccc(Nc3nc(-c4cccnc4)cs3)cc2)cc1 [compound 904, 4-(4-(4-(pyridin-3-yl)thiazol-2-ylamino)phenoxy)benzoic acid]",< 1000 nM
